The values that follow come from ChEMBL document CHEMBL4814046, “Inhibitory effects and mechanism of antifungal action of the natural cyclic depsipeptide, aureobasidin A against Cryptococcus neoformans” (Bioorg Med Chem Lett, 2021).

Structures are written as SMILES. Converted amounts (≈) assume the structure as drawn. The source made the active and inactive calls.

Series [1] deals with Cryptococcus neoformans. As to the kind of experiment: Fungicidal activity against Cryptococcus neoformans PFCC 93-589 by broth microdilution assay. In kind it is functional. A general note: Dilution methods test growth across graded concentrations, often in twofold steps.
The test system of series [2] is Cryptococcus neoformans. Put plainly: Antifungal activity against Cryptococcus neoformans PFCC 93-589 assessed as half minimum inhibitory concentration by broth microdilution assay. Format: functional.
The test system of series [3] is Cryptococcus neoformans. As to the kind of experiment: Antifungal activity against Cryptococcus neoformans PFCC 93-589 by broth microdilution assay. In kind it is functional.
The subject of series [4] is Cryptococcus neoformans. As to the kind of experiment: Antifungal activity against Cryptococcus neoformans PFCC 93-589 assessed as increase in extracellular potassium leakage at 2 times MIC incubated up to 12 hrs measured per mg dry weight of cell by spectrophotometric method. Format: functional. As to conditions: time hrs <=12.
Series [5] has as its system Cryptococcus neoformans. Put plainly: Upregulation of Lac1 gene expression in Cryptococcus neoformans PFCC 93-589 at 4 ug/ml by SYBR green based RT-PCR analysis. Format: functional. As to conditions: dose 4.0 µg/ml.
Series [6] in a line: Hemolytic activity in human RBC at 4 ug/ml incubated for 30 mins. In kind it is cell-based, Erythrocyte. As to conditions: red blood cells (erythrocytes), at 4 µg/mL, read-out: Activity.
The nature of series [7]: Cytotoxicity against human HEK293 cells assessed as cell survival at 0.25 times MIC incubated for 24 hrs by MTT assay. Format: cell-based. The note with it: read-out: Activity. (Tetrazolium assays rely on reduction of a dye to a coloured formazan, in cell work by metabolically active cells.)
The test system of series [8] is Cryptococcus neoformans. As to the kind of experiment: Induction of morphological changes in Cryptococcus neoformans PFCC 93-589 assessed as disorganization of cytoplasmic content at 4 ug/ml after 48 hrs by TEM analysis. As to conditions: dose 4.0 µg/ml. Format: functional, organism-based.
Series [9] can be described thus: Hemolytic activity in human RBC at 8 ug/ml incubated for 30 mins. The note with it: red blood cells (erythrocytes), at 8 µg/mL, read-out: Activity. Format: ADME, cell-based, Erythrocyte.
Series [10] in a line: Hemolytic activity in human RBC at 2 ug/ml incubated for 30 mins. In kind it is ADME, cell-based, Erythrocyte. The note with it: red blood cells (erythrocytes), at 2 µg/mL, read-out: Activity.
The subject of series [11] is Cryptococcus neoformans. Put plainly: Inhibition of ergosterol biosynthesis in Cryptococcus neoformans PFCC 93-589 cell membrane assessed as ergosterol content at 1 times MIC incubated for 48 hrs by UV-visible spectrophotometric analysis (reference value: 0.134). Format: functional, cell membranes.
Series [12] concerns Cryptococcus neoformans. Put plainly: Inhibition of ergosterol biosynthesis in Cryptococcus neoformans PFCC 93-589 cell membrane at 0.5 times MIC incubated for 48 hrs by UV-visible spectrophotometric analysis. In kind it is functional, cell membranes.
Series [13] concerns Cryptococcus neoformans. Put plainly: Inhibition of ergosterol biosynthesis in Cryptococcus neoformans PFCC 93-589 cell membrane assessed as ergosterol content at 0.5 times MIC incubated for 48 hrs by UV-visible spectrophotometric analysis (reference value: 0.134). In kind it is functional, cell membranes.
Series [14] in a line: Cytotoxicity against human HEK293 cells assessed as cell viability at 2 times MIC incubated for 24 hrs by MTT assay. Format: cell-based. The note with it: read-out: Activity.
Series [15] deals with Cryptococcus neoformans. Put plainly: Antifungal activity against Cryptococcus neoformans PFCC 93-589 after 7 days in presence of sorbitol by microdilution assay. Format: functional. The note with it: PFCC 93-589, 168 h, time 7 day.
The nature of series [16]: Hemolytic activity in human RBC at 1 ug/ml incubated for 30 mins. Format: ADME, cell-based, Erythrocyte. As to conditions: red blood cells (erythrocytes), at 1 µg/mL, read-out: Activity.
Series [17] concerns Cryptococcus neoformans. As to the kind of experiment: Antifungal activity against Cryptococcus neoformans PFCC 93-589 after 7 days in absence of sorbitol by microdilution assay. In kind it is functional. As to conditions: PFCC 93-589, 168 h, time 7 day.
The test system of series [18] is Cryptococcus neoformans. Put plainly: Induction of morphological changes in Cryptococcus neoformans PFCC 93-589 assessed as disintegration and loosening of cell membrane at 4 ug/ml after 48 hrs by TEM analysis. Format: functional, organism-based. The note with it: dose 4.0 µg/ml.
Series [19] is described as follows: Hemolytic activity in human RBC at 16 ug/ml incubated for 30 mins. Format: ADME, cell-based, Erythrocyte. The note with it: red blood cells (erythrocytes), at 16 µg/mL, read-out: Activity.
The subject of series [20] is Cryptococcus neoformans. Put plainly: Antifungal activity against Cryptococcus neoformans PFCC 93-589 in presence of Aureobasidin-A by checkerboard microtiter assay. Format: functional.
Series [21] deals with Cryptococcus neoformans. As to the kind of experiment: Inhibition of ergosterol biosynthesis in Cryptococcus neoformans PFCC 93-589 cell membrane at 1 times MIC incubated for 48 hrs by UV-visible spectrophotometric analysis. In kind it is functional, cell membranes.
Series [22] can be described thus: Cytotoxicity against human HEK293 cells assessed as cell survival at 0.5 times MIC incubated for 24 hrs by MTT assay. In kind it is cell-based. As to conditions: read-out: Activity.
In series [23] the test system is Cryptococcus neoformans. Put plainly: Antifungal activity against Cryptococcus neoformans PFCC 93-589 after 2 days in absence of sorbitol by microdilution assay. Format: functional. As to conditions: PFCC 93-589, 48 h, time 2 day.
The nature of series [24]: Cytotoxicity against human HEK293 cells assessed as cell survival at 1 times MIC incubated for 24 hrs by MTT assay. Format: cell-based. As to conditions: read-out: Activity.
The subject of series [25] is Cryptococcus neoformans. Put plainly: Antifungal activity against Cryptococcus neoformans PFCC 93-589 after 2 days in presence of sorbitol by microdilution assay. The note with it: PFCC 93-589, 48 h, time 2 day. In kind it is functional.
The subject of series [26] is Cryptococcus neoformans. As to the kind of experiment: Downregulation of Cxt1p gene expression in Cryptococcus neoformans PFCC 93-589 at 4 ug/ml by SYBR green based RT-PCR analysis. In kind it is functional. The note with it: dose 4.0 µg/ml.
Series [27] relates to Cryptococcus neoformans. As to the kind of experiment: Antifungal activity against Cryptococcus neoformans PFCC 93-589 assessed as inhibition of melanin production at 0.5 times MIC incubated for 2 to 10 days. Format: functional, organism-based. As to conditions: time 2-10 day.

Compound `C[C@@H]1[C@H](O)[C@@H](C)/C=C/C=C/C=C/C=C/C=C/C=C/C=C/[C@H](O[C@@H]2O[C@H](C)[C@@H](O)[C@H](N)[C@@H]2O)C[C@@H]2O[C@](O)(C[C@@H](O)C[C@@H](O)[C@H](O)CC[C@@H](O)C[C@@H](O)CC(=O)O[C@H]1C)C[C@H](O)[C@H]2C(=O)O` [AMPHOTERICIN B] gave an MFC against Cryptococcus neoformans [1] of 1 µg/mL (≈ 1.08 µM). Besides, the MIC with Cryptococcus neoformans [2] stood at 0.125 µg/mL (≈ 0.135 µM); in the series on Cryptococcus neoformans [3], 0.25 µg/mL (≈ 0.271 µM). Also, in the series with Cryptococcus neoformans [4], the Activity is recorded as 3.56 mM.
Take `OC(Cn1cncn1)(Cn1cncn1)c1ccc(F)cc1F` [FLUCONAZOLE]: the result in the series with Cryptococcus neoformans [5] was inactive. In addition, in series [6], the hemolysis at 0.5 h, 4 ug/ml is 34%. Further, in series [7], the viability at 24 h, 0.25 times MIC was determined as 99.9%. For the same compound, the outcome in the series with Cryptococcus neoformans [8], in the series with Cryptococcus neoformans [18] and in the series on Cryptococcus neoformans [27] was Active. In addition, the hemolysis at 0.5 h, 8 ug/ml in [9] worked out at 42%. Moreover, the hemolysis at 0.5 h, 2 ug/ml in series [10] came to 29%. The Activity in the series with Cryptococcus neoformans [11] came out at 0.047; with Cryptococcus neoformans [13], 0.055. For the same compound, the inhibition was found to be 59% with Cryptococcus neoformans [12] and 64.9% in the series with Cryptococcus neoformans [21]. The compound also displayed an MFC in the series with Cryptococcus neoformans [1] of 16 µg/mL (≈ 52.2 µM). Moreover, the viability at 24 h, 2 times MIC in series [14] was determined as 88.6%. The MIC in the series with Cryptococcus neoformans [15] worked out at 64 µg/mL; in the series with Cryptococcus neoformans [17] it was 64 µg/mL (≈ 209 µM); in the series on Cryptococcus neoformans [2] it was 4 µg/mL (≈ 13.1 µM); with Cryptococcus neoformans [3], 8 µg/mL (≈ 26.1 µM); with Cryptococcus neoformans [20], 0.5 µg/mL; with Cryptococcus neoformans [23], 16 µg/mL (≈ 52.2 µM). Further, in the series with Cryptococcus neoformans [25], the MIC was 16 µg/mL. Besides, in series [16], the hemolysis at 0.5 h, 1 ug/ml amounted to 18%. The hemolysis at 0.5 h, 16 ug/ml in series [19] is 53%. Moreover, in series [22], the viability at 24 h, 0.5 times MIC amounted to 97.9%. The viability at 24 h, 1 times MIC in [24] turned out to be 95.5%. The inhibition entry in the series on Cryptococcus neoformans [26] was “inactive”.

The term MFC denotes the smallest concentration meeting the test's criterion for killing the fungus. For orientation: MIC means the lowest concentration that inhibits growth of the organism. One may read the inhibition as the share of the control response that was lost under treatment.
